{
  "source": "patent US8198269B2",
  "about": "“Fused aminodihydrothiazine derivative” (Eisai R&D Management Co., Ltd., priority 2008, dated 2012)",
  "test_system": "Aβ42 production",
  "assay": "Quantification of Aβ peptide in culture of neurons from rat fetus brain (Aβ ELISA)",
  "type": "cell-based",
  "settings": "Neuron, 72 h; rat primary neuronal culture (embryonic day 18 Wistar rat cerebral cortex); cultured three days after addition of compound; Aβ42 concentration in the medium by ELISA; read-out: Aβ42 production reducing effect IC50",
  "description": "Quantification of Aβ Peptide in Culture of Neurons from Rat Fetus Brain\n(1) Rat Primary Neuronal Culture\nPrimary neuronal cultures were prepared from the cerebral cortex of embryonic day 18 Wistar rats (Charles River Japan, Yokohama, Japan). Specifically, the embryos were aseptically removed from pregnant rats under ether anesthesia. The brain was isolated from the embryo and immersed in an ice-cold L-15 medium (such as Invitrogen Corp. Cat #11415-064, Carlsbad, Calif., USA, or SIGMA L1518). The cerebral cortex was collected from the isolated brain under a stereoscopic microscope. The cerebral cortex fragments collected were enzymatically treated in an enzyme solution containing 0.25% trypsin (Invitrogen Corp. Cat #15050-065, Carlsbad, Calif., USA) and 0.01% DNase (Sigma D5025, St. Louis, Mo., USA) at 37° C. for 30 minutes to disperse the cells. Here, the enzymatic reaction was stopped by adding inactivated horse serum to the solution. The enzymatically treated solution was centrifuged at 1,500 rpm for five minutes to remove the supernatant. 5 to 10 ml of a medium was added to the resulting cell mass. […]",
  "data": [
    {"compound": "NC1=N[C@@]2(c3cc(NC(=O)c4cnc(OCF)cn4)ccc3F)COC[C@@H](F)[C@H]2CS1", "note": "[Example 21, N-[3-((4aS,5S,8aS)-2-amino-5-fluoro-4,4a,5,6,8,8a-hexahydro-7-oxa-3-thia-1-azanaphthalen-8a-yl)-4-fluorophenyl]-5-fluoromethoxypyrazine-2-carboxamide]", "values": [
      {"measurement": "IC50", "value": 0.01, "unit": "µM"}
    ]}
  ]
}
